Inconclusive results and toxic doses are left out. No stated cut-off is given here; in the data, active means T/C of 150% or more; inactive means T/C below 125%.
Tested on: L1210 leukemia ip in BDF1 mice, survival T/C
Test: NCI In Vivo Anticancer Drug Screen. Data for tumor model L1210 Leukemia (intraperitoneal) in B6D2F1 (BDF1) mice
Conditions: endpoint: mean survival time, higher = longer survival
Summary of the method: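 Antitumor effect is assessed in tumor-bearing animals. Survival in the compound arm is compared with a vehicle-dosed control arm and expressed as their quotient.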

[1] = dose: 100.0 mg/kg/injection, schedule: Q04DX002 (ip), vehicle: Klucel (hydroxypropylcellulose) (HPC)
[2] = dose: 200.0 mg/kg/injection, schedule: Q04DX002 (ip), vehicle: Klucel (hydroxypropylcellulose) (HPC)
[3] = dose: 200.0 mg/kg/injection, schedule: Q01DX009 (ip), vehicle: saline with Tween-80
[4] = dose: 400.0 mg/kg/injection, schedule: Q01DX009 (ip), vehicle: saline with Tween-80
[5] = dose: 100.0 mg/kg/injection, schedule: Q01DX009 (ip), vehicle: saline sonified
[6] = dose: 200.0 mg/kg/injection, schedule: Q01DX009 (ip), vehicle: saline sonified
[7] = dose: 400.0 mg/kg/injection, schedule: Q01DX009 (ip), vehicle: saline sonified
[8] = dose: 100.0 mg/kg/injection, schedule: Q01DX009 (ip), vehicle: saline with Tween-80
[9] = dose: 100.0 mg/kg/injection, schedule: Q04DX003 (ip), vehicle: saline with Tween-80
[10] = dose: 200.0 mg/kg/injection, schedule: Q04DX003 (ip), vehicle: saline with Tween-80
[11] = dose: 50.0 mg/kg/injection, schedule: Q01DX009 (ip), vehicle: saline with Tween-80

Measured: T/C

CC1=CC(=O)C=C(C(C)C)/C1=C(\c1ccccc1C(=O)O)c1c(C)cc(OP(=O)(O)O)cc1C(C)C
inactive: dose: 100.0 mg/kg/injection, schedule: Q01DX009 (ip), vehicle: saline 103 % of control | dose: 100.0 mg/kg/injection, schedule: Q04DX003 (ip), vehicle: saline 106 % of control | dose: 200.0 mg/kg/injection, schedule: Q01DX009 (ip), vehicle: saline 102 % of control | dose: 200.0 mg/kg/injection, schedule: Q04DX003 (ip), vehicle: saline 97 % of control | dose: 400.0 mg/kg/injection, schedule: Q01DX009 (ip), vehicle: saline 100 % of control | dose: 400.0 mg/kg/injection, schedule: Q04DX003 (ip), vehicle: saline 98 % of control

S=C(N/N=C1\CCCCC1c1ccccc1)Nc1ccccc1 (stereo not drawn)
inactive: dose: 100.0 mg/kg/injection, schedule: Q01DX009 (ip), vehicle: Klucel (hydroxypropylcellulose) (HPC) 95 % of control | dose: 200.0 mg/kg/injection, schedule: Q01DX009 (ip), vehicle: Klucel (hydroxypropylcellulose) (HPC) 90 % of control | dose: 400.0 mg/kg/injection, schedule: Q01DX009 (ip), vehicle: Klucel (hydroxypropylcellulose) (HPC) 104 % of control

C1CSCSC1
inactive: dose: 12.5 mg/kg/injection, schedule: Q01DX009 (ip), vehicle: Klucel (hydroxypropylcellulose) (HPC) 100 % of control | dose: 12.5 mg/kg/injection, schedule: Q04DX003 (ip), vehicle: Klucel (hydroxypropylcellulose) (HPC) 101 % of control | dose: 25.0 mg/kg/injection, schedule: Q01DX009 (ip), vehicle: Klucel (hydroxypropylcellulose) (HPC) 95 % of control | dose: 25.0 mg/kg/injection, schedule: Q04DX003 (ip), vehicle: Klucel (hydroxypropylcellulose) (HPC) 97 % of control | dose: 50.0 mg/kg/injection, schedule: Q04DX003 (ip), vehicle: Klucel (hydroxypropylcellulose) (HPC) 100 % of control

c1ccc(CN2C3C(c4ccccc4)=NN=C(c4ccccc4)C32)cc1 (stereo not drawn)
inactive: dose: 100.0 mg/kg/injection, schedule: Q01DX001 (ip), vehicle: saline 98 % of control | dose: 200.0 mg/kg/injection, schedule: Q01DX001 (ip), vehicle: saline 102 % of control | dose: 400.0 mg/kg/injection, schedule: Q01DX001 (ip), vehicle: saline 102 % of control

C=C(C)C1CCCC(Cc2cccc3c(Cl)cccc23)C1 (stereo not drawn)
inactive: dose: 100.0 mg/kg/injection, schedule: Q01DX001 (ip), vehicle: gum acacia 97 % of control | dose: 200.0 mg/kg/injection, schedule: Q01DX001 (ip), vehicle: gum acacia 94 % of control | dose: 400.0 mg/kg/injection, schedule: Q01DX001 (ip), vehicle: gum acacia 99 % of control

Cc1c(CC#N)cc(C)c2c3c([nH]c12)-c1ccccc1CC3
inactive: dose: 50.0 mg/kg/injection, schedule: Q04DX002 (ip), vehicle: Klucel (hydroxypropylcellulose) (HPC) 102 % of control | [1] 106 % of control | [2] 102 % of control | dose: 400.0 mg/kg/injection, schedule: Q04DX002 (ip), vehicle: Klucel (hydroxypropylcellulose) (HPC) 104 % of control

Cc1cc(C)c(OS(=O)(=O)c2ccc([N+](=O)[O-])cc2)c(C)c1
inactive: [3] 87 % of control | [4] 89 % of control

COc1ccc2c(c1OC)CCN1C3=C(CC(OC(=O)c4ccccc4)CC3)C(=O)CC21 (stereo not drawn)
inactive: dose: 100.0 mg/kg/injection, schedule: Q01DX001 (ip), vehicle: Klucel (hydroxypropylcellulose) (HPC) 96 % of control | [5] 93 % of control | dose: 200.0 mg/kg/injection, schedule: Q01DX001 (ip), vehicle: Klucel (hydroxypropylcellulose) (HPC) 94 % of control | [6] 95 % of control | dose: 400.0 mg/kg/injection, schedule: Q01DX001 (ip), vehicle: Klucel (hydroxypropylcellulose) (HPC) 97 % of control | [7] 93 % of control

CC(C)=CCC/C(C)=C/CN1C(=O)c2ccccc2C1=O
inactive: [8] 103 % of control | [9] 93 % of control | [3] 106 % of control | [10] 102 % of control | [4] 95 % of control | dose: 400.0 mg/kg/injection, schedule: Q04DX003 (ip), vehicle: saline with Tween-80 96 % of control

CCCCCCCC/C=C\CCCCCCCC(=O)OCCCCCC
inactive: [5] 98 % of control | [6] 102 % of control | [7] 93 % of control

CCC[CH2][Sn]1([CH2]CCC)[O]C(=O)C[S]1
inactive: dose: 0.78 mg/kg/injection, schedule: Q04DX003 (ip), vehicle: saline 105 % of control | dose: 1.5 mg/kg/injection, schedule: Q01DX Z (ip), vehicle: saline 97 % of control | dose: 1.56 mg/kg/injection, schedule: Q01DX001 (ip), vehicle: acetone 96 % of control | dose: 1.56 mg/kg/injection, schedule: Q04DX003 (ip), vehicle: saline 109 % of control | dose: 2.5 mg/kg/injection, schedule: Q01DX009 (ip), vehicle: acetone 105 % of control | dose: 3.0 mg/kg/injection, schedule: Q01DX Z (ip), vehicle: saline 106 % of control | dose: 3.12 mg/kg/injection, schedule: Q01DX001 (ip), vehicle: acetone 104 % of control | dose: 3.12 mg/kg/injection, schedule: Q04DX003 (ip), vehicle: saline 109 % of control | dose: 4.6 mg/kg/injection, schedule: Q04DX003 (ip), vehicle: saline 107 % of control | dose: 6.0 mg/kg/injection, schedule: Q01DX Z (ip), vehicle: saline 90 % of control | dose: 6.25 mg/kg/injection, schedule: Q01DX001 (ip), vehicle: acetone 105 % of control | dose: 6.25 mg/kg/injection, schedule: Q04DX002 (ip), vehicle: saline with Tween-80 101 % of control | dose: 7.0 mg/kg/injection, schedule: Q04DX003 (ip), vehicle: saline 97 % of control | dose: 10.0 mg/kg/injection, schedule: Q04DX003 (ip), vehicle: saline 108 % of control | dose: 12.5 mg/kg/injection, schedule: Q04DX002 (ip), vehicle: saline with Tween-80 96 % of control | dose: 100.0 mg/kg/injection, schedule: Q04DX002 (ip), vehicle: saline with Tween-80 106 % of control

CC(=O)C1C(=O)OC(C)=C(C(=O)O)C1=O (stereo not drawn)
inactive: [11] 102 % of control | [8] 100 % of control | [9] 92 % of control | [10] 103 % of control

O=P(N1CCOCC1)(N1CC1)N1CC1
inactive: dose: 2.3 mg/kg/injection, schedule: Q01DX015 (ip), vehicle: saline 103 % of control | dose: 3.5 mg/kg/injection, schedule: Q01DX015 (ip), vehicle: saline 108 % of control | dose: 5.3 mg/kg/injection, schedule: Q01DX015 (ip), vehicle: saline 114 % of control | dose: 6.2 mg/kg/injection, schedule: Q01DX001 (ip), vehicle: saline 105 % of control | dose: 9.3 mg/kg/injection, schedule: Q01DX001 (ip), vehicle: saline 107 % of control | dose: 14.0 mg/kg/injection, schedule: Q01DX001 (ip), vehicle: saline 112 % of control | dose: 25.0 mg/kg/injection, schedule: Q01DX009 (ip), vehicle: saline 116 % of control | dose: 38.0 mg/kg/injection, schedule: Q01DX015 (ip), vehicle: saline 104 % of control
active: dose: 12.5 mg/kg/injection, schedule: Q01DX009 (ip), vehicle: saline 196 % of control | dose: 14.0 mg/kg/injection, schedule: Q01DX015 (ip), vehicle: saline 210 % of control | dose: 23.0 mg/kg/injection, schedule: Q01DX015 (ip), vehicle: saline 246 % of control | dose: 33.0 mg/kg/injection, schedule: Q01DX001 (ip), vehicle: saline 157 % of control

CC(C)(C)CC(=O)OCCC[N+](C)(C)C
inactive: dose: 25.0 mg/kg/injection, schedule: Q01DX009 (ip), vehicle: water 104 % of control | dose: 50.0 mg/kg/injection, schedule: Q01DX009 (ip), vehicle: water 106 % of control

O=C1c2cccc3cccc(c23)C(=O)N1CCCCCCCCN1C(=O)c2cccc3cccc(c23)C1=O
inactive: [1] 88 % of control | [2] 101 % of control

C=CCc1c(O)c(OC)cc2c1C(=O)CCCC2
inactive: [11] 93 % of control | [8] 93 % of control | [3] 93 % of control

O=C(Cl)c1cc(Cl)nc2c(Cl)cc(Cl)cc12
inactive: dose: 75.0 mg/kg/injection, schedule: Q01DX001 (ip), vehicle: saline 86 % of control | dose: 150.0 mg/kg/injection, schedule: Q01DX001 (ip), vehicle: saline 94 % of control | dose: 300.0 mg/kg/injection, schedule: Q01DX001 (ip), vehicle: saline 90 % of control

From PubChem BioAssay AID248 (DTP/NCI, 2004)
